Experimental data: patent US8580516B2, “Methods and compositions for direct detection of DNA damage” (University of Chicago, priority 2008, dated 2013)

How the values were obtained:
mammalian cells = settings: via misincorporation and/or mispairing during replication; cited from earlier work
HL60 cells = test: In vitro differentiation of HL60 cells to neutrophils, CD11b flow cytometry; format: cell-based; settings: 1 μM, five days, FITC anti-human CD11b flow cytometry
Description: HL60 cells were grown to confluence (1×10^6 cells/ml) in Roswell Park Memorial Institute media (“RPMI”) 1640 media supplemented with 10% fetal bovine serum, 1% penicillin/streptomycin and 2 mM L-glutamine at 37° C. in 5% CO2 and treated with ethanol carrier, 1 μM ATRA or 1 μM ATRA, 6 nM Vitamin D3 and 30 ng/ml G-CSF for five days.

[1] = Privat and Sowers 1996; cited from earlier work
several cell lines = settings: cited from earlier work

O=Cc1cn([C@H]2C[C@H](O)[C@@H](COP(=O)(O)OP(=O)(O)OP(=O)(O)O)O2)c(=O)[nH]c1=O [5-FodUTP, 5-formyl deoxyuridine triphosphate]
mutations induced in cells (mammalian cells): induces both transition and transversion mutations

CC1=C(/C=C/C(C)=C/C=C/C(C)=C/C(=O)O)C(C)(C)CCC1 [ATRA, all-trans retinoic acid]
expression of CD11b (HL60 cells): increased expression of CD11b

O=c1ccn([C@@H]2O[C@H](CO)[C@@H](O)[C@H]2O)c(=O)[nH]1 [uridine]
pKa [1]: 9.4

O=Cc1cn([C@H]2C[C@H](O)[C@@H](CO)O2)c(=O)[nH]c1=O [5-FodU, 5-formyldeoxyuridine]
IC50 (several cell lines; 5-FodU fed to tissue culture cells, several cell lines, read-out: IC50 (toxicity)): ~1000 nM
toxicity in cells lacking thymidine kinase or thymidylate synthetase (several cell lines; cells lacking thymidine kinase or thymidylate synthetase): lost
pKa [1]: 6.8
